Test results as given in patent US7524495B2, “Inhibition of TACE or amphiregulin for the modulation of EGF receptor signal transactivation” (Max-Planck-Gesellschaft zur Foerderung der Wissenschaften …, priority 2003, dated 2009).

What was measured:
proAR = assay: Flow cytometric analysis of cell surface proAR (proAR shedding); assay type: cell-based, human; conditions: for cell surface content of endogenous proAR after agonist treatment: head and neck cancer cells, LPA 10 μM
Description: (§1) FIG. 1 GPCR stimulation of the EGFR Involves a ligand-dependent mechanism and is accompanied by AR release from the cell surface. a, EGFR signal transactivation requires metalloprotease activity and the EGFR extracellular domain. SCC-9 cells were pre-incubated with marimastat (BB2516, 10 μM; 20 min), anti-EGFR antibody ICR-3R (20 μg/mL; 60 min) or PTX (100 ng/mL; 18 h) and treated with LPA (10 μM), carbachol (Car, 1 mM), EGF (7.5 ng/mL) or pervanadate (PV, 1 mM) for 3 min. Following immunoprecipitation (IP) of cell extracts with anti-EGFR antibody proteins were immunoblotted (IB) with anti-phosphotyrosine antibody and re-probed with anti-EGFR antibody. b, Flow cytometric analysis of EGF-like precursor expression. SCC-9 cells were collected and stained for surface HB-EGF, TGFa or AR and analyzed by flow cytometry. Control cells were labelled with FITC-conjugated secondary antibody alone. c, LPA-induced proteolytic processing of proAR. SCC-9 cells were pre-incubated with batimastat (BB94, 10 μM) or PTX and stimulated with LPA or TPA (1 μM) for 5 min. Cells were collected and analyzed for cell surface AR density by flow cytometry. d, GPCR-induced proteolytic release of AR. SCC-9 cells were pre-incubated with batimastat or vehicle followed by stimulation with agonists as indicated for 120 min. Conditioned medium was collected and analyzed for total AR amount by ELISA. Each bar is the average of triplicate values (mean±s.d.). *, P<0.03 for the difference between agonists vs. BB94+agonists.
(§2) ACS analysis was performed as described before (1). Cells were stained with ectodomain-specific antibodies against HB-EGF, AR (R&D Systems) or TGFa (Oncogene, Boston; Mass.). After washing with PBS, cells were incubated with FITC-conjugated secondary antibody and analyzed on a Becton Dickinson FACScalibur flow cytometer.

proHB-EGF = assay: Flow cytometric analysis of proHB-EGF ectodomain cleavage; assay type: cell-based, human; conditions: HNSCC cells; data not shown
Description: as §2

proTGFα = assay: Flow cytometric analysis of proTGFα ectodomain cleavage; assay type: cell-based, human; conditions: HNSCC cells; data not shown
Description: as §2

amphiregulin (AR) = assay: AR release into cell culture medium (sandwich ELISA); assay type: cell-based, human; conditions: SCC-9 cells; compared to LPA stimulation
Description: as §1, with “SCC-9 cells were pre-incubated with batimastat (BB94, 10 μM) or PTX and stimulated with LPA or TPA (1 μM) for 5 min.” left out, “SCC-9 cells were pre-incubated with batimastat or vehicle followed by stimulation with agonists as indicated for 120 min.” left out, “Each bar is the average of triplicate values (mean±s.d.). *, P<0.03 for the difference between agonists vs. BB94+agonists.” left out
Concentrations of free AR were determined by sandwich ELISA (R&D Systems) using monoclonal anti-AR capture antibody and biotinylated polyclonal detection antibody. […] Values are expressed as mean±s.d. of at least triplicate samples. […]

EGFR = EGFR tyrosine phosphorylation / EGFR signal transactivation (IP with anti-EGFR, anti-phosphotyrosine immunoblot); assay type: cell-based, human; conditions: for GPCR-induced EGFR tyrosine phosphorylation (EGFR transactivation signal): SCC-9 cells, stimulation with LPA or carbachol
Description: as §1
FIG. 2 GPCR stimulation requires AR to trigger EGFR-dependent signals and biological responses. a, Blockade of EGF-like growth factor precursor expression by RNA interference (RNAi). SCC-9 cells were transfected with siRNA for proAR, proHB-EGF or proTGFα cultured for 2 days and analyzed for gene expression by RT-PCR as indicated or b, stimulated with LPA or carbachol and assayed for EGFR tyrosine phosphorylation content. c, Requirement of AR for LPA-induced cell migration. SIRNA-transfected SCC-9 cells were analyzed for transwell migration toward fibronectin as chemoattractant. Each bar is the average of quadruplicate values (mean±s.d.). *, P<0.001 for control siRNA+LPA vs. proAR siRNA+LPA. d, Effect of anti-AR neutralizing antibody and heparin on GPCR-induced EGFR and SHC tyrosine phosphorylation. […] Phosphorylated ERK1/2 was detected by immunoblotting total lysates with anti-phospho-ERK antibody. […] Quantitative analysis of ERK phosphorylation from three independent experiments (mean±s.d.). *, P<0.05 for the difference between LPA vs. inhibitors+LPA. […] Cells were then pulse-labelled with ^3H-thymidine and thymidine incorporation was measured by liquid-scintillation counting. Quantitative analysis from three independent experiments (mean±s.d.). *, P<0.001 for LPA vs. inhibitors+LPA. […]

SCC-15 cells = assay: 3H-thymidine incorporation assay (DNA synthesis); assay type: cell-based, human; conditions: 18 h
Description: (§3) FIG. 2 GPCR stimulation requires AR to trigger EGFR-dependent signals and biological responses. a, Blockade of EGF-like growth factor precursor expression by RNA interference (RNAi). SCC-9 cells were transfected with siRNA for proAR, proHB-EGF or proTGFα cultured for 2 days and analyzed for gene expression by RT-PCR as indicated or b, stimulated with LPA or carbachol and assayed for EGFR tyrosine phosphorylation content. c, Requirement of AR for LPA-induced cell migration. SIRNA-transfected SCC-9 cells were analyzed for transwell migration toward fibronectin as chemoattractant. […] Phosphorylated ERK1/2 was detected by immunoblotting total lysates with anti-phospho-ERK antibody. […] Quantitative analysis of ERK phosphorylation from three independent experiments (mean±s.d.). *, P<0.05 for the difference between LPA vs. inhibitors+LPA. […] Cells were then pulse-labelled with ^3H-thymidine and thymidine incorporation was measured by liquid-scintillation counting. Quantitative analysis from three independent experiments (mean±s.d.). *, P<0.001 for LPA vs. inhibitors+LPA.
For the ^3H-thymidine incorporation assay (5), SCC-15 cells were seeded into 12-well plates at 3×10^4 cells/well. […] After 18 h cells were pulse-labelled with ^3H-thymidine (1 μCi/ml) for 4 h, and thymidine incorporation was measured by trichloroacetic acid precipitation and subsequent liquid-scintillation counting.

TACE = TACE (Homo sapiens, UniProt P78536); conditions: reference (25); cited from earlier work
TACE, sequence (P78536 215-824): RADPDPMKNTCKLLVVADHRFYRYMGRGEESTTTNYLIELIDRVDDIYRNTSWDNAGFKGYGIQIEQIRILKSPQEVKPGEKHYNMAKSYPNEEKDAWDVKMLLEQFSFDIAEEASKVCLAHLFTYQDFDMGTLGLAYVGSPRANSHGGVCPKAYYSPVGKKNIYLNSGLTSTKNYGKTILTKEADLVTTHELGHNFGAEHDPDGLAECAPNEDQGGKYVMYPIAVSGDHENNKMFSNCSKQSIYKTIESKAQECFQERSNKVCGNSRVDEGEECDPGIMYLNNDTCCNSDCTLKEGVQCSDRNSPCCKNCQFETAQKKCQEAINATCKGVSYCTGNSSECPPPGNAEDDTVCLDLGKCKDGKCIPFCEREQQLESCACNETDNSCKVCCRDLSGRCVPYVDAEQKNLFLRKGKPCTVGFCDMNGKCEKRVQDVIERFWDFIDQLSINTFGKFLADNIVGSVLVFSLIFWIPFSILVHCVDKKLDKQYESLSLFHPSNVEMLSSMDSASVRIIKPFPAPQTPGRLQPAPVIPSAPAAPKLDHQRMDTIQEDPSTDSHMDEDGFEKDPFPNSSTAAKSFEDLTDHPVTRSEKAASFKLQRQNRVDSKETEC

ERK1/2 = assay: ERK/MAPK activation (anti-phospho-ERK immunoblot); assay type: cell-based, human; conditions: SCC-9 and SCC-15 cells
Description: as §3
Cells were lysed and proteins immunoprecipitated as described (13). […] Phosphotyrosine was detected with the 4G10 monoclonal antibody (UBI, Lake Placid, N.Y.). […]

Akt/PKB = Akt/PKB phosphorylation (anti-phospho-Akt immunoblot); assay type: cell-based, human; conditions: head and neck cancer cells

CCCCCCCCCCCCCC(=O)O[C@@H]1[C@@H](C)[C@@]2(O)[C@@H](C=C(CO)C[C@]3(O)C(=O)C(C)=C[C@@H]23)[C@@H]2C(C)(C)[C@]12OC(C)=O [TPA]
cell surface content of endogenous proAR after agonist treatment (proAR; TPA 1 µM as printed): reduced | proteolytic (ectodomain) cleavage of proHB-EGF by agonist (proHB-EGF): resulted in ectodomain cleavage | proteolytic (ectodomain) cleavage of proTGFα by agonist (proTGFα): resulted in ectodomain cleavage

C[N+](C)(C)CCOC(N)=O [carbachol]
AR release in response to agonist (amphiregulin (AR)): substantially lower compared to LPA stimulation

CNC(=O)[C@@H](NC(=O)[C@H](CC(C)C)[C@H](O)C(=O)NO)C(C)(C)C [marimastat]
GPCR-induced EGFR tyrosine phosphorylation (EGFR transactivation signal) (EGFR): sensitive

COc1cc2ncnc(Nc3cccc(Cl)c3)c2cc1OC [tyrphostin AG1478]
DNA synthesis triggered by LPA (SCC-15 cells): decreased DNA synthesis by LPA to below basal level

Timp-1: human Timp-1; ectopic expression by retroviral transduction
GPCR-induced EGFR tyrosine phosphorylation (EGFR transactivation signal) (EGFR): not | proteolytic activity of TACE in vitro (TACE): not

heparin
LPA-induced EGFR tyrosine phosphorylation (EGFR signal transactivation) (EGFR; LPA 10 μM, 3 min, SCC-9 (anti-AR also SCC-4, SCC-15, SCC-25)): completely blocked | LPA-induced ERK activation (ERK1/2): prevented

lysophosphatidic acid [LPA]
cell surface content of endogenous proAR after agonist treatment (proAR; TPA 1 µM): reduced | proteolytic (ectodomain) cleavage of proHB-EGF by agonist (proHB-EGF): not able to induce | proteolytic (ectodomain) cleavage of proTGFα by agonist (proTGFα): not able to induce | phosphorylation of Akt/PKB at Ser-473 by agonist (Akt/PKB): markedly increased

pertussis toxin [PTX]
LPA-induced ectodomain cleavage (shedding) of proAR (proAR; SCC-9 cells, batimastat 10 μM, PTX 100 ng/mL): partially inhibited

B1: Timp-3: tissue inhibitor of metalloprotease-3; ectopic expression by retroviral transduction (protein)
chain: CTCSPSHPQDAFCNSDIVIRAKVVGKKLVKEGPFGTLVYTIKQMKMYRGFTKMPHVQYIHTEASESLCGLKLEVNKYQYLLTGRVYDGKMYTGLCNFVERWDQLTLSQRKGLNYRYHLGCNCKIKSCYYLPCFVTSKNECLWTDMLSNFGYPGYQSKHYACIRQKGGYCSWYRGWAPPDKSIINATDP
modifications: left off: small tags and cut ends
notes: ectopic expression by retroviral transduction
GPCR-induced EGFR tyrosine phosphorylation (EGFR transactivation signal) (EGFR): inhibited | proteolytic activity of TACE in vitro (TACE): inhibited
